ChEMBL document CHEMBL2021804, “Synthesis and evaluation of piperidine urea derivatives as efficacious 11β-hydroxysteroid dehydrogenase type 1 inhibitors in diabetic ob/ob mice” (Bioorg Med Chem Lett, 2012)
Each block holds one compound with its values, some of them ahead of it.

What was measured:
[1] = target: 11-beta-hydroxysteroid dehydrogenase 1 (Mus musculus, UniProt P50172); assay: Inhibition of mouse 11beta-HSD1 expressed in HEK293 cells assessed as [3H]cortisol production after 60 mins by SPA; format: cell-based
11-beta-hydroxysteroid dehydrogenase 1 (Mus musculus, UniProt P50172), sequence (P50172 whole entry): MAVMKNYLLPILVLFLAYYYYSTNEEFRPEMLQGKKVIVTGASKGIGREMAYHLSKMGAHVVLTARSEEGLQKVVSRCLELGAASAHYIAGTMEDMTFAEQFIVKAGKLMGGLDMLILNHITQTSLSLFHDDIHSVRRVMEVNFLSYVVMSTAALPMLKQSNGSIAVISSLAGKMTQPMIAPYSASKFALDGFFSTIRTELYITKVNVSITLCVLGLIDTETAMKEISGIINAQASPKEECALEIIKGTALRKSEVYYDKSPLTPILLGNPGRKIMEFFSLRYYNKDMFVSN

[2] = target: 11-beta-hydroxysteroid dehydrogenase 1 (Homo sapiens, UniProt P28845); assay: Inhibition of human 11beta-HSD1 expressed in HEK293 cells assessed as [3H]cortisol production after 60 mins by SPA; format: cell-based
11-beta-hydroxysteroid dehydrogenase 1 (Homo sapiens, UniProt P28845), sequence (P28845 whole entry): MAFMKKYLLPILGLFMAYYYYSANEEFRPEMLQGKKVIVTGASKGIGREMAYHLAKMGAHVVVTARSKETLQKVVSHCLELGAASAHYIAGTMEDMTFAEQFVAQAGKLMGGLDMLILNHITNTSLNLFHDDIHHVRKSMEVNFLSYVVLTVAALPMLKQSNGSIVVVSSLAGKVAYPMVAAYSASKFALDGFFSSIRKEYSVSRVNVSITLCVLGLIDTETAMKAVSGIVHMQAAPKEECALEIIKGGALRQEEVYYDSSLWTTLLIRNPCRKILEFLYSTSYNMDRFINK

[3] = test system: HEK293; assay: Selectivity ratio of IC50 for human 11beta-HSD1 expressed in HEK293 cells to IC50 for mouse 11beta-HSD1 expressed in HEK293 cells; format: cell-based
[4] = target: T1, 11-beta-hydroxysteroid dehydrogenase type 2 (Homo sapiens, UniProt P80365); assay: Inhibition of human 11beta-HSD2 expressed in HEK293 cells assessed as [3H]cortisol production after 60 mins by SPA; format: cell-based
T1 sequence (P80365 whole entry): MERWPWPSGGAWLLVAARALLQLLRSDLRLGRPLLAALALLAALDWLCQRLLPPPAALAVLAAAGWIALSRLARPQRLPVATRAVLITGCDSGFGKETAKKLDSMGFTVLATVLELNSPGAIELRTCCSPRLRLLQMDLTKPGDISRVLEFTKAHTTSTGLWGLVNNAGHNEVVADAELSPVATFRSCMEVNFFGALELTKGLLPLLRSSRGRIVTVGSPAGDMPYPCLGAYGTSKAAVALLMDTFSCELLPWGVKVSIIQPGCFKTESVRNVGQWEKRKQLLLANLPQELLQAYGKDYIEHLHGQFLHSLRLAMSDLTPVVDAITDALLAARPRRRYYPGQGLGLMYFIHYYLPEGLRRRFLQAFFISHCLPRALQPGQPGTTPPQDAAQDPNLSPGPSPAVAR

[5] = target: T2, 11-beta-hydroxysteroid dehydrogenase type 2 (Mus musculus, UniProt P51661); assay: Inhibition of mouse 11beta-HSD2 expressed in HEK293 cells assessed as [3H]cortisol production after 60 mins by SPA; format: cell-based
T2 sequence (P51661 whole entry): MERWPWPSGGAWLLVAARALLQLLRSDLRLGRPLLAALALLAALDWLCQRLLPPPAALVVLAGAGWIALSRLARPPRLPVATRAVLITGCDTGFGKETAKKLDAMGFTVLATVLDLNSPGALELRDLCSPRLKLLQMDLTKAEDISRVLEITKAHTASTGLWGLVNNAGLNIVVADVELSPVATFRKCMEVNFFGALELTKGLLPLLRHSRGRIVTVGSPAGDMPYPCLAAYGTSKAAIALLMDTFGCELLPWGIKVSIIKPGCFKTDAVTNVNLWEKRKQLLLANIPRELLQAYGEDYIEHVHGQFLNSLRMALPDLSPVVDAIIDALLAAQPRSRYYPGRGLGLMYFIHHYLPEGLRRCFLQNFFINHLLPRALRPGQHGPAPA

[6] = AUC (0 to infinity) in po dosed Sprague-Dawley rat; format: ADME, organism-based; design: route oral, time infinity; conditions: plasma
[7] = Mean residence time in po dosed Sprague-Dawley rat; format: ADME, organism-based; conditions: in vivo
[8] = Half life in po dosed Sprague-Dawley rat; format: ADME, organism-based; conditions: in vivo
[9] = Tmax in po dosed Sprague-Dawley rat; format: ADME, organism-based; conditions: in vivo
[10] = AUC (0 to t) in po dosed Sprague-Dawley rat; format: ADME, organism-based; conditions: plasma
[11] = Cmax in po dosed Sprague-Dawley rat; format: ADME, organism-based; design: route oral; conditions: in vivo
[12] = test system: Mus musculus; assay: Toxicity in ob/ob mouse type 2 diabetes model assessed as effect on body weight at 50 mg/kg, ip once daily for 20 days measured every 5 days for 20 days; format: organism-based; design: dose 50 mg/kg, route intraperitoneal; conditions: in vivo, 480 h
[13] = test system: Mus musculus; assay: Toxicity in ob/ob mouse type 2 diabetes model assessed as effect on food intake at 50 mg/kg, ip once daily for 20 days measured every 4 days for 20 days; format: organism-based; design: dose 50 mg/kg, route intraperitoneal; conditions: in vivo, 480 h
[14] = test system: Mus musculus; assay: Antidiabetic activity in ob/ob mouse type 2 diabetes model assessed as reduction in blood glucose level at 50 mg/kg, ip once daily for 5 days measured on day 20; format: functional; design: scale not given: the % may be the effect or the level left; conditions: route intraperitoneal
[15] = test system: Mus musculus; assay: Antidiabetic activity in ob/ob mouse type 2 diabetes model assessed as reduction in fasting blood glucose level at 50 mg/kg, ip once daily for 5 days measured on day 10; format: functional; design: scale not given: the % may be the effect or the level left; conditions: route intraperitoneal
[16] = test system: Mus musculus; assay: Antidiabetic activity in ob/ob mouse type 2 diabetes model assessed as reduction in fasting blood glucose level at 50 mg/kg, ip once daily for 20 days; format: functional; design: scale not given: the % may be the effect or the level left; conditions: route intraperitoneal
[17] = test system: Mus musculus; assay: Antidiabetic activity in ob/ob mouse type 2 diabetes model assessed as reduction in blood glucose level at 50 mg/kg, ip once daily for 5 days measured on day 15; format: functional; design: scale not given: the % may be the effect or the level left; conditions: route intraperitoneal
[18] = test system: Mus musculus; assay: Antidiabetic activity in ob/ob mouse type 2 diabetes model assessed as reduction in nonfasting blood glucose level at 50 mg/kg, ip once daily for 5 days; format: functional; design: scale not given: the % may be the effect or the level left; conditions: route intraperitoneal
[19] = test system: Mus musculus; assay: Antidiabetic activity in ob/ob mouse type 2 diabetes model assessed as reduction in nonfasting blood glucose level at 50 mg/kg, ip once daily for 20 days; format: functional; design: scale not given: the % may be the effect or the level left; conditions: route intraperitoneal
[20] = test system: Mus musculus; assay: Antidiabetic activity in ob/ob mouse type 2 diabetes model assessed as reduction in fasting blood glucose level at 50 mg/kg, ip once daily for 5 days measured on day 15; format: functional; design: scale not given: the % may be the effect or the level left; conditions: route intraperitoneal
[21] = AUC in Sprague-Dawley rat at 5 mg/kg, po; format: ADME, organism-based; design: dose 5 mg/kg, route oral; conditions: plasma
[22] = test system: HEK293; assay: Selectivity ratio of IC50 for human 11beta-HSD2 expressed in HEK293 cells to IC50 for human 11beta-HSD1 expressed in HEK293 cells; format: cell-based
[23] = test system: Mus musculus; assay: Antidiabetic activity in ob/ob mouse type 2 diabetes model assessed as reduction in fasting blood glucose level at 50 mg/kg, ip once daily for 5 days measured on day 20; format: functional; design: scale not given: the % may be the effect or the level left; conditions: route intraperitoneal
[24] = test system: Mus musculus; assay: Antidiabetic activity in ob/ob mouse type 2 diabetes model assessed as reduction in blood glucose level at 50 mg/kg, ip once daily for 5 days measured on day 10; format: functional; design: scale not given: the % may be the effect or the level left; conditions: route intraperitoneal

EC50 [1]: 210 nM
EC50 [2]: 90 nM
SMILES: CN(C(=O)c1ccc(CN2C(=O)Nc3ccc(Cl)cc3S2(=O)=O)cc1)C1CCCCCC1

EC50 [1]: 10 nM
EC50 [2]: 517 nM
SMILES: O=C(N1CCC(CN2C(=O)Nc3ccc(Cl)cc3S2(=O)=O)CC1)N(C1CCCCCC1)C1CC1
Ratio IC50 [3]: 3

EC50 [1]: 529 nM
EC50 [2]: 686 nM
SMILES: O=C(NC1CCCCC1)c1ccc(CN2C(=O)Nc3ccc(Cl)cc3S2(=O)=O)cc1

EC50 [1]: 14 nM
EC50 [2]: 47 nM
SMILES: O=C(NC12CC3CC(CC(C3)C1)C2)c1ccc(CN2C(=O)Nc3ccc(Cl)cc3S2(=O)=O)cc1

EC50 [1]: 55 nM
EC50 [2]: 70 nM
SMILES: CN(C(=O)c1ccc(CN2C(=O)Nc3ccc(Cl)cc3S2(=O)=O)cc1)C12CC3CC(CC(C3)C1)C2

EC50 [1]: 8 nM
EC50 [2]: 10 nM
SMILES: CC1(C)[C@@H](O[C@H]2O[C@H](C(=O)O)[C@@H](O)[C@H](O)[C@H]2O[C@@H]2O[C@H](C(=O)O)[C@@H](O)[C@H](O)[C@H]2O)CC[C@]2(C)[C@H]3C(=O)C=C4[C@@H]5C[C@@](C)(C(=O)O)CC[C@]5(C)CC[C@@]4(C)[C@]3(C)CC[C@@H]12 [GLYCYRRHIZIN]

EC50 [1]: 69 nM
EC50 [2]: 4 nM
SMILES: CN(C(=O)c1cccc(CN2C(=O)Nc3ccc(Cl)cc3S2(=O)=O)c1)C1C2CC3CC(C2)CC1C3 (configuration not stated)

EC50 [1]: 401 nM
EC50 [2]: 4 nM
SMILES: CN(C(=O)c1cccc(CN2C(=O)Nc3ccc(Cl)cc3S2(=O)=O)c1)C1CCCCCC1

EC50 [1]: 185 nM
EC50 [2]: 60 nM
SMILES: O=C(c1ccc(CN2C(=O)Nc3ccc(Cl)cc3S2(=O)=O)cc1)N(C1CCCCC1)C1CC1

EC50 [4]: 720 nM
EC50 [1]: 2 nM
EC50 [5]: > 100000 nM
EC50 [2]: 158 nM
SMILES: CN(C(=O)N1CCC(CN2C(=O)Nc3ccc(Cl)cc3S2(=O)=O)CC1)C1C2CC3CC(C2)CC1C3 (configuration not stated)
Ratio IC50 [3]: 3

EC50 [1]: 58 nM
EC50 [2]: 3 nM
SMILES: O=C(c1cccc(CN2C(=O)Nc3ccc(Cl)cc3S2(=O)=O)c1)N(C1CCCCC1)C1CC1

EC50 [1]: 17 nM
EC50 [2]: 283 nM
SMILES: O=C(NC1CCCCCC1)N1CCC(CN2C(=O)Nc3ccc(Cl)cc3S2(=O)=O)CC1
Ratio IC50 [3]: 3

EC50 [1]: 84 nM
EC50 [2]: 55 nM
SMILES: O=C(c1ccc(CN2C(=O)Nc3ccc(Cl)cc3S2(=O)=O)cc1)N(C1CCCCCC1)C1CC1

AUC(0-inf) [6]: 16.1 ng·h/mL
MRT [7]: 4.02 h
half-life [8]: 2.02 h
EC50 [1]: 258 nM
Tmax [9]: 2.3 h
AUC(0-t) [10]: 15.5 ng·h/mL
Cmax [11]: 3.86 ng/mL
EC50 [2]: 1 nM
SMILES: O=C(c1cccc(CN2C(=O)Nc3ccc(Cl)cc3S2(=O)=O)c1)N(C1CCCCCC1)C1CC1

AUC(0-inf) [6]: 209 ng·h/mL
MRT [7]: 4.24 h
half-life [8]: 2.3 h
EC50 [4]: 860 nM
EC50 [1]: 0.41 nM
Tmax [9]: 2 h
EC50 [5]: > 100000 nM
AUC(0-t) [10]: 173 ng·h/mL
Cmax [11]: 46.8 ng/mL
AUC [21]: 147 ng·h/mL
EC50 [2]: 21 nM
SMILES: CN(C(=O)N1CCC(CN2C(=O)Nc3ccc(Cl)cc3S2(=O)=O)CC1)C1CCCCCC1
Activity [12]: Non-toxic
Activity [13]: Non-toxic
Activity [14]: 35.6%
Activity [15]: 33.3%
Activity [16]: 31.4%
Activity [17]: 34.6%
Activity [18]: 25%
Activity [19]: 25.7%
Activity [20]: 39.4%
Ratio IC50 [22]: 40
Ratio IC50 [3]: 3
Activity [23]: 36.1%
Activity [24]: 27.9%

EC50 [1]: 180 nM
EC50 [2]: 443 nM
SMILES: O=C(NC1CCCCCCC1)c1ccc(CN2C(=O)Nc3ccc(Cl)cc3S2(=O)=O)cc1

EC50 [1]: 145 nM
EC50 [2]: 802 nM
SMILES: O=C(NC1CCCCCC1)c1ccc(CN2C(=O)Nc3ccc(Cl)cc3S2(=O)=O)cc1

EC50 [4]: 2200 nM
EC50 [1]: 37 nM
EC50 [5]: > 100000 nM
EC50 [2]: 121 nM
SMILES: O=C(N1CCC(CN2C(=O)Nc3ccc(Cl)cc3S2(=O)=O)CC1)N(C1CCCCC1)C1CC1
Ratio IC50 [3]: 3
